# Measurements taken from ChEMBL document CHEMBL5291721, “A preclinical secondary pharmacology resource illuminates target-adverse drug reaction associations of marketed drugs” (Nat Commun, 2023).
# Key:
# Adenosine receptor A1 = biological target: T1, Adenosine receptor A1 (Homo sapiens, UniProt P30542)
# T1 sequence (P30542 whole entry): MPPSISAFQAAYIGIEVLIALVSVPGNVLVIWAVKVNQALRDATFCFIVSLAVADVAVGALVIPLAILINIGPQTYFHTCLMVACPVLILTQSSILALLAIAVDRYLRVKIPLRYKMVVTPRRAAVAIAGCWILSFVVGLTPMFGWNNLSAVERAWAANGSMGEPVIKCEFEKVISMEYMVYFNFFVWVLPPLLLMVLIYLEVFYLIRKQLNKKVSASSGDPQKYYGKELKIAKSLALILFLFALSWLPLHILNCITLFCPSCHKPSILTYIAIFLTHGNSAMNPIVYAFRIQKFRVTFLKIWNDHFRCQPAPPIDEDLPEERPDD
# Adenosine receptor A2a = Adenosine receptor A2a (Homo sapiens, UniProt P29274)
# Sequence of Adenosine receptor A2a (P29274 whole entry): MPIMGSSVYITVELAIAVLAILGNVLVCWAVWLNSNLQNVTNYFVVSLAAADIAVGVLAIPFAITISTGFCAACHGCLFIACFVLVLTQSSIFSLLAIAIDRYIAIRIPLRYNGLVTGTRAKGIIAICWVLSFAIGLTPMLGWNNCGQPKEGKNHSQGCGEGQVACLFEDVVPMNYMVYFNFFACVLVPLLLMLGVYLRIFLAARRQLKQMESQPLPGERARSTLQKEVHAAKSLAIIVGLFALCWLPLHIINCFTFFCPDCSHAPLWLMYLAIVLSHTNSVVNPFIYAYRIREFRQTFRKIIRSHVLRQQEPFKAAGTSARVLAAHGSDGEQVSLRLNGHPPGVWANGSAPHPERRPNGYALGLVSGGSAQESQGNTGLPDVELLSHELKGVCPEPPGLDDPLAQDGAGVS
# Adenosine receptor A3 = biological target: T2, Adenosine receptor A3 (Homo sapiens, UniProt P0DMS8)
# T2 sequence (P0DMS8 whole entry): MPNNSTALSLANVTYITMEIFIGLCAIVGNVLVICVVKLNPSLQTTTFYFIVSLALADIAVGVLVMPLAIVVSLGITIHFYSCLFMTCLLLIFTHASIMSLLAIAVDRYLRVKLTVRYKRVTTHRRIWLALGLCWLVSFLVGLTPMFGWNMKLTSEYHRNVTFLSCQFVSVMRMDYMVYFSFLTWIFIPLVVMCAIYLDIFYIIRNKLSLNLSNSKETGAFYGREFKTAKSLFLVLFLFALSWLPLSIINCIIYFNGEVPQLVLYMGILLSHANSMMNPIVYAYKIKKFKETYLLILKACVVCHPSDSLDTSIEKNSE
# [1] = biological target: T3, Muscarinic acetylcholine receptor M2 (Homo sapiens, UniProt P08172); type: functional, cell-based
# T3 sequence (P08172 whole entry): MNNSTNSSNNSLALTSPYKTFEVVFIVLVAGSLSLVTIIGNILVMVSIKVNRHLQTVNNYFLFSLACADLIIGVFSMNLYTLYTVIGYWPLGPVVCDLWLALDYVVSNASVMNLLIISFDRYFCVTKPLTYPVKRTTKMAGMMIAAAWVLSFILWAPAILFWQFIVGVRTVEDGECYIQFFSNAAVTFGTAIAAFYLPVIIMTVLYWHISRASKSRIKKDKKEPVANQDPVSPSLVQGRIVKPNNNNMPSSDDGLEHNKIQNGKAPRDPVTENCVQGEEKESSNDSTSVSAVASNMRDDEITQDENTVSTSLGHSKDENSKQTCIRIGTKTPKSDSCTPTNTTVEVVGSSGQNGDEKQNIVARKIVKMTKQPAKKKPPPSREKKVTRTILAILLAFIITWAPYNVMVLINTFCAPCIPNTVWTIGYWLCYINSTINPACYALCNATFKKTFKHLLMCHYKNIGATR
# [2] = biological target: Gamma-aminobutyric acid receptor subunit alpha-1 (Rattus norvegicus, UniProt P62813)
# Sequence of Gamma-aminobutyric acid receptor subunit alpha-1 (P62813 whole entry): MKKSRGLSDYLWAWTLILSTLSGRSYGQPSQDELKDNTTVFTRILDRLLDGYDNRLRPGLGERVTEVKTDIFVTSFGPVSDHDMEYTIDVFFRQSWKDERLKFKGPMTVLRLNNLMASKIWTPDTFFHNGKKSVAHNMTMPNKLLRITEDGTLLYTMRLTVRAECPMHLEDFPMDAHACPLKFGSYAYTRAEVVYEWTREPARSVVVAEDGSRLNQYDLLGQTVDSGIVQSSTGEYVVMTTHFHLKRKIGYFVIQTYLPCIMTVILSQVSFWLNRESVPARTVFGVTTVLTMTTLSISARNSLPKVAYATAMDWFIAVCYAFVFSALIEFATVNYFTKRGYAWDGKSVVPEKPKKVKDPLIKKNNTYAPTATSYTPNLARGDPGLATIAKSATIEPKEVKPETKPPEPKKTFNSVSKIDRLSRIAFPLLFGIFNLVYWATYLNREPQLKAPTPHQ
# Histamine H1 receptor = Histamine H1 receptor (Homo sapiens, UniProt P35367)
# Sequence of Histamine H1 receptor (P35367 whole entry): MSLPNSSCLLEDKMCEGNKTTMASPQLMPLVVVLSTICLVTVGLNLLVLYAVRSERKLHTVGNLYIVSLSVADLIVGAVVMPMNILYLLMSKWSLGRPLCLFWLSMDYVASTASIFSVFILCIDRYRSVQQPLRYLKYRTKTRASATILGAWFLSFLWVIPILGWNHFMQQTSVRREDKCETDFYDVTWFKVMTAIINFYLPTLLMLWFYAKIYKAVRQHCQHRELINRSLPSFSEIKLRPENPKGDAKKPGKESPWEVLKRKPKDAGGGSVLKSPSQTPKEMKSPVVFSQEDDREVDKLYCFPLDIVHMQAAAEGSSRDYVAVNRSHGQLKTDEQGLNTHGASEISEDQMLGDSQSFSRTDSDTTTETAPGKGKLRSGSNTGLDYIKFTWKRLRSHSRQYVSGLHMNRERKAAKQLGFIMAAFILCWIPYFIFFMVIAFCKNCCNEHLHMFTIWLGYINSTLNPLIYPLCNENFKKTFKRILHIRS
# [3] = biological target: Delta-type opioid receptor (Homo sapiens, UniProt P41143)
# Sequence of Delta-type opioid receptor (P41143 whole entry): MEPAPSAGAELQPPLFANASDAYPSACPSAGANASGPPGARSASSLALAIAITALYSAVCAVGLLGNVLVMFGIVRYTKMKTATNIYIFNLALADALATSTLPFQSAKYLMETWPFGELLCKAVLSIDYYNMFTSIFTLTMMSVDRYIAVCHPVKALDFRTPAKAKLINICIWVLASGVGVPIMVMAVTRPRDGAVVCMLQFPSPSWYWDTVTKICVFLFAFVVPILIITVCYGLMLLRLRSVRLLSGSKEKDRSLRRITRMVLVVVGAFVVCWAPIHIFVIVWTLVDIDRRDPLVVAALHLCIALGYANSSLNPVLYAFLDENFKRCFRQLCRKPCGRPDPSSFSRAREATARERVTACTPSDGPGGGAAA
# [4] = biological target: 3',5'-cyclic-AMP phosphodiesterase 4D (Homo sapiens, UniProt Q08499); type: functional
# Sequence of 3',5'-cyclic-AMP phosphodiesterase 4D (Q08499 whole entry): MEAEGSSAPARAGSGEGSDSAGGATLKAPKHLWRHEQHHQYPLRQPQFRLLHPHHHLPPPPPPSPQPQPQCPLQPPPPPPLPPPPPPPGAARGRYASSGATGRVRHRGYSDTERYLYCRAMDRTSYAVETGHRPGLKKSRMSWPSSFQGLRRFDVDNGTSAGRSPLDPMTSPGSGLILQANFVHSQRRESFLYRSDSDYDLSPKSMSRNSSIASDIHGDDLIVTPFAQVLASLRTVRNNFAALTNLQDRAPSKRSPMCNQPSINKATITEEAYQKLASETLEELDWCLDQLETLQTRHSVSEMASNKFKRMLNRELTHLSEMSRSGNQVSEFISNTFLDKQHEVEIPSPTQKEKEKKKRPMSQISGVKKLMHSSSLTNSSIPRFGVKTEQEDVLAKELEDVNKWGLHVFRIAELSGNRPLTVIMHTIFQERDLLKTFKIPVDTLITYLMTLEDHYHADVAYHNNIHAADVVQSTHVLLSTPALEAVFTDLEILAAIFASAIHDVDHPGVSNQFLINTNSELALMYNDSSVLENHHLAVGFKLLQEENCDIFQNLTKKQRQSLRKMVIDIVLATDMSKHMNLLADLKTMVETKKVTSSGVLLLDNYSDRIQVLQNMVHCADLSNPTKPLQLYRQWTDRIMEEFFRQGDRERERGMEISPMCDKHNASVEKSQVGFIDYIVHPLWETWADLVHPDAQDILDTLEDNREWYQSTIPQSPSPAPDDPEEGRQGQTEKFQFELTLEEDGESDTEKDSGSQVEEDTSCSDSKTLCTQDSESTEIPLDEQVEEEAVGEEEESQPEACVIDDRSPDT
# Progesterone receptor = biological target: T4, Progesterone receptor (Homo sapiens, UniProt P06401); type: functional
# T4 sequence (P06401 whole entry): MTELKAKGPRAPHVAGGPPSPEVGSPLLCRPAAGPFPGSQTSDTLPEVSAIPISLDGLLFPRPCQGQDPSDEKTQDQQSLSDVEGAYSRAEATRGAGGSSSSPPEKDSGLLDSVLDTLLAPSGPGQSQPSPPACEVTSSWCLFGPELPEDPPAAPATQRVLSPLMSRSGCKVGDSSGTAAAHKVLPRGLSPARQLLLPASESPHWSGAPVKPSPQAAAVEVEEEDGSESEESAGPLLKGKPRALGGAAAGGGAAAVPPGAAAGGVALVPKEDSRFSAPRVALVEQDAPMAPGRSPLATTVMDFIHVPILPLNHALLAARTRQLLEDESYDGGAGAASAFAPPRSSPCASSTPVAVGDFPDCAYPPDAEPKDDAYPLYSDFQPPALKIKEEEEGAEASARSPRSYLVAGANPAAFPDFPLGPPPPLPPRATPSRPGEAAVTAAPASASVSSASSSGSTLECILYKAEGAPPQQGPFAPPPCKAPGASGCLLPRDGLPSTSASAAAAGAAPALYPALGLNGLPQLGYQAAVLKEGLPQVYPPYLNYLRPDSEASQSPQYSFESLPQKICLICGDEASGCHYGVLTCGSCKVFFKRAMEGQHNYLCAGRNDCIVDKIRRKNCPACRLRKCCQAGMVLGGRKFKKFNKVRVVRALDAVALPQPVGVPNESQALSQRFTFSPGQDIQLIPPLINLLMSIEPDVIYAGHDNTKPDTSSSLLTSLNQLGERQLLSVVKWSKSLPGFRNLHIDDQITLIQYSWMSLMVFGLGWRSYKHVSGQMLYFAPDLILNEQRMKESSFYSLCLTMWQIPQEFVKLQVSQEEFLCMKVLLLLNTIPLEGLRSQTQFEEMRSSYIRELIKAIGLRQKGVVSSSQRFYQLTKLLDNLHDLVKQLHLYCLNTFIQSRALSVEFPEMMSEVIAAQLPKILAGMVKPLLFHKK
# Histamine H3 receptor = Histamine H3 receptor (Homo sapiens, UniProt Q9Y5N1)
# Sequence of Histamine H3 receptor (Q9Y5N1 whole entry): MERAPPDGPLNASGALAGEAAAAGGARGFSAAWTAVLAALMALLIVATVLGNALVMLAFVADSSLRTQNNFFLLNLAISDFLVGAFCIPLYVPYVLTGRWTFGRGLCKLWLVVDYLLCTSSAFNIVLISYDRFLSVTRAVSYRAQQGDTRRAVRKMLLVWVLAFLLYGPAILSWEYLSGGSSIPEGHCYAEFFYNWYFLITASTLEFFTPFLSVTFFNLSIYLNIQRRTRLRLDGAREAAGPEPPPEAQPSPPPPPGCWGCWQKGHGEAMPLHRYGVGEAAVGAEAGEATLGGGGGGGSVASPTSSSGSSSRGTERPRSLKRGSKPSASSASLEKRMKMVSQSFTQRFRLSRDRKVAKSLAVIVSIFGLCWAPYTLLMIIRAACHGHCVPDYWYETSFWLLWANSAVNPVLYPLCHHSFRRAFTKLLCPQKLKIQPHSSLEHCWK
# [5] = biological target: T5, Amine oxidase [flavin-containing] A (Homo sapiens, UniProt P21397); type: functional
# T5 sequence (P21397 whole entry): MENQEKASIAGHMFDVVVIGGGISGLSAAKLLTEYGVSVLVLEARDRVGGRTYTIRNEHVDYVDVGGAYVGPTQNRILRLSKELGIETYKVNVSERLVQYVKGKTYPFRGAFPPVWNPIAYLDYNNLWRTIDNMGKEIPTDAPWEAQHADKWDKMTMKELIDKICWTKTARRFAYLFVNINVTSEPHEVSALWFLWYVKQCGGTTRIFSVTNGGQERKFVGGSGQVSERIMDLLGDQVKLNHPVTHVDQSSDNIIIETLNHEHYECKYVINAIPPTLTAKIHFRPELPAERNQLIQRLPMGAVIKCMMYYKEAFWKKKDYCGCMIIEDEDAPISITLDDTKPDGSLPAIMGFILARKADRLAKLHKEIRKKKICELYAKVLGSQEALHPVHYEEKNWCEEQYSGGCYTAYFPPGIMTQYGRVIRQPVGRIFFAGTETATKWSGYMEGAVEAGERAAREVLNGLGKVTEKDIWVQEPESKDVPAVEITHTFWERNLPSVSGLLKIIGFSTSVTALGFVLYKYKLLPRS
# Note: assay procedure not described here.
Structure (SMILES),AC50 (Adenosine receptor A1),AC50 (Adenosine receptor A2a),AC50 (Adenosine receptor A3),AC50 [1],AC50 [2],AC50 (Histamine H1 receptor),AC50 [3],AC50 [4],AC50 (Progesterone receptor),AC50 (Histamine H3 receptor),AC50 [5]
CNC(=O)c1cnn(-c2nc(N)c3ncn([C@@H]4O[C@H](CO)[C@@H](O)[C@H]4O)c3n2)c1 [REGADENOSON ANHYDROUS],–,–,3.7 µM,–,–,–,–,–,–,–,–
CCn1c(=O)c2c(nc(/C=C/c3ccc(OC)c(OC)c3)n2C)n(CC)c1=O [ISTRADEFYLLINE],23 µM,–,24 µM,> 30 µM,–,> 30 µM,–,1.8 µM,> 30 µM,–,> 30 µM
COc1ccc(-c2cc(=S)ss2)cc1 [ANETHOLTRITHION],5.9 µM,11 µM,7.7 µM,> 30 µM,> 30 µM,> 30 µM,> 30 µM,> 10 µM,15 µM,> 10 µM,7.4 µM
COc1cccc2c1C(=O)c1c(O)c3c(c(O)c1C2=O)C[C@@](O)(C(=O)CO)C[C@@H]3O[C@H]1C[C@H](N)[C@H](O)[C@H](C)O1 [DOXORUBICIN],> 30 µM,> 30 µM,> 30 µM,> 10 µM,> 10 µM,–,> 30 µM,> 30 µM,> 30 µM,> 30 µM,> 30 µM
N=C(N)NC(=O)c1nc(Cl)c(N)nc1N [AMILORIDE],> 30 µM,> 30 µM,> 30 µM,> 30 µM,> 30 µM,–,> 30 µM,> 30 µM,> 30 µM,> 30 µM,4.41 µM
CC(C)(C)NCC(O)COc1ccccc1C#N (stereo unspecified) [BUNITROLOL],–,–,–,> 30 µM,> 30 µM,> 30 µM,> 30 µM,> 30 µM,–,–,14 µM
COc1ccc(C(=O)c2ccccc2)c(O)c1 [OXYBENZONE],–,–,–,> 30 µM,> 30 µM,17 µM,> 30 µM,26 µM,–,–,> 30 µM
C[C@]12CCC(=O)C=C1C=C[C@@H]1[C@@H]2CC[C@@]2(C)[C@H]1CC[C@@]21CCC(=O)O1 [CANRENONE],> 30 µM,> 30 µM,> 30 µM,20 µM,> 30 µM,> 30 µM,> 30 µM,> 30 µM,0.2 µM,> 30 µM,> 30 µM
Cc1cn(-c2cc(NC(=O)c3ccc(C)c(Nc4nccc(-c5cnccn5)n4)c3)cc(C(F)(F)F)c2)cn1 [RADOTINIB],–,> 30 µM,3.3 µM,> 30 µM,–,> 30 µM,–,> 30 µM,> 30 µM,–,> 30 µM
Cc1ccc(O)c([C@H](CCN(C(C)C)C(C)C)c2ccccc2)c1 [TOLTERODINE],–,–,–,–,> 30 µM,4.06 µM,> 10 µM,–,–,> 30 µM,> 10 µM

# Other lines, results leading:
AC50 (Adenosine receptor A1),AC50 (Adenosine receptor A2a),AC50 (Adenosine receptor A3),AC50 [1],AC50 [2],AC50 (Histamine H1 receptor),AC50 [3],AC50 [4],AC50 (Progesterone receptor),AC50 (Histamine H3 receptor),AC50 [5],Structure (SMILES)
> 30 µM,> 30 µM,> 30 µM,> 30 µM,> 30 µM,> 30 µM,> 30 µM,> 30 µM,> 30 µM,> 30 µM,–,CC(C)(Oc1ccc(Cl)cc1)C(=O)OCCOC(=O)c1cccnc1 [ETOFIBRATE]
> 30 µM,> 30 µM,> 30 µM,> 30 µM,> 30 µM,–,> 30 µM,> 30 µM,0.02 µM,> 30 µM,> 30 µM,CC1(C)O[C@@H]2C[C@H]3[C@@H]4CCC5=CC(=O)C=C[C@]5(C)[C@@]4(F)[C@@H](O)C[C@]3(C)[C@]2(C(=O)CO)O1 [TRIAMCINOLONE ACETONIDE]
> 30 µM,> 30 µM,> 30 µM,> 10 µM,> 30 µM,> 30 µM,> 30 µM,> 30 µM,–,> 30 µM,> 30 µM,C[C@]12CCC(=O)C=C1[C@@H]1C[C@@H]1[C@H]1[C@@H]3[C@@H]4C[C@@H]4[C@@]4(CCC(=O)O4)[C@@]3(C)CC[C@@H]12 [DROSPIRENONE]
> 10 µM,> 10 µM,> 10 µM,> 10 µM,> 10 µM,> 10 µM,> 30 µM,> 30 µM,> 10 µM,> 10 µM,> 10 µM,CN(C)CCC(O)(c1ccccc1)c1ccccc1Cl (stereo unspecified) [CHLOPHEDIANOL]
> 10 µM,> 10 µM,> 10 µM,> 10 µM,> 10 µM,> 10 µM,> 30 µM,> 30 µM,> 30 µM,> 10 µM,> 10 µM,CN(C)[C@@H]1C(O)=C(C(=O)NCN2CCCC2)C(=O)[C@@]2(O)C(O)=C3C(=O)c4c(O)cccc4[C@@](C)(O)[C@H]3C[C@@H]12 [ROLITETRACYCLINE]
> 30 µM,> 30 µM,> 30 µM,> 10 µM,> 10 µM,–,> 30 µM,> 30 µM,–,> 10 µM,> 10 µM,C[C@]12C=CC(=O)C=C1CC[C@@H]1[C@@H]2[C@@H](O)C[C@@]2(C)[C@H]1CC[C@]2(O)C(=O)CO [PREDNISOLONE]
> 30 µM,> 30 µM,13 µM,> 30 µM,> 30 µM,> 30 µM,> 30 µM,> 30 µM,2.1 µM,> 30 µM,> 30 µM,C[C@]12C=CC(=O)C=C1C(Cl)=C[C@@H]1[C@@H]2[C@@H](O)C[C@@]2(C)[C@H]1CC[C@]2(O)C(=O)CO [CLOPREDNOL]
